For one assay, the target named is human MER (528-end) (Homo sapiens (Human), UniProt Q12866). Put plainly: HTRF Kinase Activity Biochemical Assay (KinEASE-TK). The following applies: 10 uM ATP. The method, boiled down:
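Recombinant human MER (528-end) phosphorylated biotin-TK peptide substrate, 1 h at room temperature. Reaction stopped with detection buffer containing 0.375 nM Eu3+-cryptate anti-TK antibody and 0.062 uM streptavidin-XL665, 1 h further. Activity taken as HTRF ratio 665/620 nm ×10,000, 340 nm excitation.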

The target in assay [1] is BCR fusion to kinase domain of MerTK (Ba/F3-MerTK) (Homo sapiens, UniProt Q12866). The experiment in a line: In Cell TAM Kinase Assay Using BaF3 Cellular System. Format: cell-based, murine. To be noted: Ba/F3 BCR-kinase fusion proliferation, 72 hours, Cell Titer Glo; kinase not given; read-out: IC50. The text has this: Three Ba/F3 cell lines (a murine IL-3 dependent pro-B cell line) expressing BCR fusions to the kinase domains of either MerTK (Ba/F3-MerTK), Axl (Ba/F3-Axl), or Tyro3 (Ba/F3-Tyro3) were purchased from Advanced Cellular Dynamics. The IL-3 independence of all 3 cell lines was confirmed. After thawing, the 3 Ba/F3 cell lines were split and maintained in cell culture media, which consisted of RPMI-1640-HEPES (Thermo-Cat #22400-089) with 1× Glutamax (Thermo-Cat #35050-061) and 10% FBS (Sigma-Cat #F4135 (500 ml), at a cell density range of 0.05×10^6−1×10^6 cells/mL 4 days before used in the routine screen. Compound plates were prepared using Nunc™ white 384-well optical bottom plates (ThermoFisher, USA) with compound in 25 nL dimethyl sulfoxide in each well. For routine assays, each of the 3 Ba/F3 cell lines was seeded at 1,000 cells per well with 25 µL of cell culture media directly into 384-well compound plates and incubated for 72 hours. Cell proliferation was then measured by adding 25 μL of Cell Titer Glo 2.0 (Promega, USA). After incubating with Cell Titer Glo at room temperature for 30 mins, the luminescence intensity, which quantifies the cell viability, was measured using an Envision™ plate reader (PerkinElmer, USA). […] In the presence of IL-3, the proliferation of the Ba/F3-Tyro3 cells is no longer dependent on the Tyro3 kinase activity.
In general terms: ATP-based viability assays read luminescence as a measure of living cells.

What is called IC50 is the concentration at which inhibition is half-maximal.

The structures appear in SMILES notation. Bounds are passed on as bounds.

Sequence of BCR fusion to kinase domain of MerTK (Ba/F3-MerTK) (Q12866 21-999 limits assumed, stated change not applied): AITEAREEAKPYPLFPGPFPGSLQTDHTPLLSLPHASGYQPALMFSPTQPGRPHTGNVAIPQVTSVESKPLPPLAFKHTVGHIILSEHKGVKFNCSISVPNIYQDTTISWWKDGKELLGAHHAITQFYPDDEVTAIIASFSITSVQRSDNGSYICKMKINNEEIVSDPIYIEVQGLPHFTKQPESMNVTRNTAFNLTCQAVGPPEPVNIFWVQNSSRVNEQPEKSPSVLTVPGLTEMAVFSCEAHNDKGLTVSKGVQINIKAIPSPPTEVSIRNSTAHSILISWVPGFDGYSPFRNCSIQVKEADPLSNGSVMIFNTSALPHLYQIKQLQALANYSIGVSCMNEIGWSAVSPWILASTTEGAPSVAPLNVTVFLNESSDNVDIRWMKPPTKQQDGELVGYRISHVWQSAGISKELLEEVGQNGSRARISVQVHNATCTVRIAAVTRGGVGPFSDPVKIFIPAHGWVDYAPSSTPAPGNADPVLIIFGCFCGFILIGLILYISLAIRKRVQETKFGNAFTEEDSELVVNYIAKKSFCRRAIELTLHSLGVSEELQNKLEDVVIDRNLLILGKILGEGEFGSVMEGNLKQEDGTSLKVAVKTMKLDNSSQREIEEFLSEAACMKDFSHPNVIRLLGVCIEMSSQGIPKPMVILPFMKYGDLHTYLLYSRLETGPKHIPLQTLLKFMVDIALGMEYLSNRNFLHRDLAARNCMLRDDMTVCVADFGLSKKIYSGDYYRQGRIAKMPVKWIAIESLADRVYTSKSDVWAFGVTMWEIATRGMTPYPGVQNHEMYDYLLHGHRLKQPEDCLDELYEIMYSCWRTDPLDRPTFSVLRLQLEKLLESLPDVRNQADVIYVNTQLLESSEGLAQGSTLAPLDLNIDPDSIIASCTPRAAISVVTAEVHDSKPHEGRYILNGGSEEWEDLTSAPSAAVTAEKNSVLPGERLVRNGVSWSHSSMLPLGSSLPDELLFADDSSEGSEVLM
Sequence of human MER (528-end) (Q12866 528-999 limits assumed): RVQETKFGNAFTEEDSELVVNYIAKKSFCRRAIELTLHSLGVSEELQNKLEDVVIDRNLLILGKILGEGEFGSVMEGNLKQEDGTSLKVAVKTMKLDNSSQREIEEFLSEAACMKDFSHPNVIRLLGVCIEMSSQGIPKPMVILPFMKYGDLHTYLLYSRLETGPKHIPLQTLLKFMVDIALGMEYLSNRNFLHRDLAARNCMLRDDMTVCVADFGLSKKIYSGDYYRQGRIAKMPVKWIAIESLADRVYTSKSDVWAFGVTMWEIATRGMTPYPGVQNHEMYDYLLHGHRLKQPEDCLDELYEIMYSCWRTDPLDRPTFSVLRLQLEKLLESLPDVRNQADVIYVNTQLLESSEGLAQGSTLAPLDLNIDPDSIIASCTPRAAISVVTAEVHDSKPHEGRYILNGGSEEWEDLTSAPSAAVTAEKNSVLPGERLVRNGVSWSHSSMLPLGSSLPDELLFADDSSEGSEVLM

Regarding `Cc1csc(-c2ccc(C(=O)N3CC[C@@H](NC(=O)c4cc(-c5cnn(C)c5)cnc4N)C3)cc2)c1` [Example 525, (R)-2-amino-5-(1-methyl-1H-pyrazol-4-yl)-N-(1-(4-(4-methylthiophen-2-yl)benzoyl)pyrrolidin-3-yl)nicotinamide], the IC50 was in the range of 10 to 100 nM at human MER (528-end) and 100 to 500 nM in assay [1].
For `Cc1ccc(-c2ccc(C(=O)N3CC[C@@H](NC(=O)c4cc(-c5cnn(C)c5)cnc4N)C3)cc2)s1` [Example 526, (R)-2-amino-5-(1-methyl-1H-pyrazol-4-yl)-N-(1-(4-(5-methylthiophen-2-yl)benzoyl)pyrrolidin-3-yl)nicotinamide], in that order: 10 to 100 nM and greater than 1000 nM.
On to `Cn1cc(-c2cnc(N)c(C(=O)N[C@@H]3CCN(C(=O)c4ccc(-c5ccc(Cl)s5)cc4)C3)c2)cn1` [Example 534, (R)-2-amino-N-(1-(4-(5-chlorothiophen-2-yl)benzoyl)pyrrolidin-3-yl)-5-(1-methyl-1H-pyrazol-4-yl)nicotinamide], for which the values for the IC50 (on human MER (528-end); in assay [1]) were 10 to 100 nM and greater than 1000 nM, respectively.
For `Cn1cc(-c2cnc(N)c(C(=O)N[C@@H]3CCN(C(=O)C(=O)c4ccccc4)C3)c2)cn1` [Example 546, (R)-2-amino-5-(1-methyl-1H-pyrazol-4-yl)-N-(1-(2-oxo-2-phenylacetyl)pyrrolidin-3-yl)nicotinamide], in that order: greater than 1000 nM and greater than 1000 nM.
In the case of `CC(C)(c1ccc(-c2cnc(N)c(C(=O)N[C@@H]3CCN(C(=O)c4ccc(-c5ccccc5)cc4)C3)c2)cc1)N1CCN(CCO)CC1` [Example 565, (R)—N -(1-([1,1′-biphenyl]-4-carbonyl)pyrrolidin-3-yl)-2-amino-5-(4-(2-(4-(2-hydroxyethyl)piperazin-1-yl)propan-2-yl)phenyl)nicotinamide], the figures for the IC50 (on human MER (528-end); in assay [1]) were 10 to 100 nM and greater than 1000 nM, respectively.
In the case of `CN1CCN(Cc2ccc(-c3cnc(N)c(C(=O)N[C@@H]4CCN(C(=O)c5ccc(-c6ccccc6)cc5)C4)c3)cc2)CC1` [Example 567, (R)—N-(1-([1,1′-biphenyl]-4-carbonyl)pyrrolidin-3-yl)-2-amino-5-(4-((4-methylpiperazin-1-yl)methyl)phenyl)nicotinamide], the results for the IC50 (at human MER (528-end); in assay [1]) were 10 to 100 nM and greater than 1000 nM, respectively.
The like results for `Nc1ncc(-c2ccc(N3CCOCC3)nc2)cc1C(=O)N[C@@H]1CCN(C(=O)c2ccc(-c3ccc(F)cc3Cl)cc2)C1` [Example 584, (R)-6-amino-N-(1-(2′-chloro-4′-fluoro-[1,1′-biphenyl]-4-carbonyl)pyrrolidin-3-yl)-6′-morpholino-[3,3′-bipyridine]-5-carboxamide] were, in that order, 10 to 100 nM and greater than 1000 nM.
The like results for `Nc1ncc(-c2cnn(Cc3cccnc3)c2)cc1C(=O)N[C@@H]1CCN(C(=O)c2ccc(-c3ccc(F)cc3Cl)cc2)C1` [Example 586, (R)-2-amino-N-(1-(2′-chloro-4′-fluoro-[1,1′-biphenyl]-4-carbonyl)pyrrolidin-3-yl)-5-(1-(pyridin-3-ylmethyl)-1H-pyrazol-4-yl)nicotinamide] were, in that order, 10 to 100 nM and 500 to 1000 nM.
The like results for `CN1CCN(C(=O)c2ccc(-c3cnc(N)c(C(=O)N[C@@H]4CCN(C(=O)c5ccc(-c6ccccc6Cl)cc5)C4)c3)cc2)CC1` [Example 588, (R)-2-amino-N-(1-(2′-chloro-[1,1′-biphenyl]-4-carbonyl)pyrrolidin-3-yl)-5-(4-(4-methylpiperazine-1-carbonyl)phenyl)nicotinamide] were, in that order, 10 to 100 nM and greater than 1000 nM.
In the case of `Nc1ncc(-c2ccc(C(=O)N3CCOCC3)cc2)cc1C(=O)N[C@@H]1CCN(C(=O)c2ccc(-c3ccccc3Cl)cc2)C1` [Example 590, (R)-2-amino-N-(1-(2′-chloro-[1,1′-biphenyl]-4-carbonyl)pyrrolidin-3-yl)-5-(4-(morpholine-4-carbonyl)phenyl)nicotinamide], the values for the IC50 (at human MER (528-end); in assay [1]) were 10 to 100 nM and greater than 1000 nM, respectively.
The like results for `Nc1ncc(-c2ccc(C(=O)NC3CCOCC3)cc2)cc1C(=O)N[C@@H]1CCN(C(=O)c2ccc(-c3ccccc3Cl)cc2)C1` [Example 593, (R)-2-amino-N-(1-(2′-chloro-[1,1′-biphenyl]-4-carbonyl)pyrrolidin-3-yl)-5-(4-((tetrahydro-2H-pyran-4-yl)carbamoyl)phenyl)nicotinamide] were, in that order, 10 to 100 nM and greater than 1000 nM.
With `Cn1cc(-c2cnc(N)c(C(=O)N[C@@H]3CCN(C(=O)c4ccc(-c5ccc(Oc6ccc(CN)cc6)cc5)cc4)C3)c2)cn1` [Example 634, (R)-2-amino-N-(1-(4′-(4-(aminomethyl)phenoxy)-[1,1′-biphenyl]-4-carbonyl)pyrrolidin-3-yl)-5-(1-methyl-1H-pyrazol-4-yl)nicotinamide], the IC50 on human MER (528-end) is less than 10 nM; in assay [1] it was 500 to 1000 nM.
Take `Cn1cc(-c2cnc(N)c(C(=O)N[C@@H]3CCN(C(=O)c4ccc(-c5ccc(Oc6ccc(CO)cc6)cc5)cc4)C3)c2)cn1` [Example 635, (R)-2-amino-N-(1-(4′-(4-(hydroxymethyl)phenoxy)-[1,1′-biphenyl]-4-carbonyl)pyrrolidin-3-yl)-5-(1-methyl-1H-pyrazol-4-yl)nicotinamide]: the results for the IC50 (against human MER (528-end); in assay [1]) were 10 to 100 nM and 100 to 500 nM, respectively.
`CN(C)Cc1ccc(Oc2ccc(-c3ccc(C(=O)N4CC[C@@H](NC(=O)c5cc(-c6cnn(C)c6)cnc5N)C4)cc3)cc2)cc1` [Example 636, (R)-2-amino-N-(1-(4′-(4-((dimethylamino)methyl)phenoxy)-[1,1′-biphenyl]-4-carbonyl)pyrrolidin-3-yl)-5-(1-methyl-1H-pyrazol-4-yl)nicotinamide]: the results for the IC50 (at human MER (528-end); in assay [1]) were 10 to 100 nM and 100 to 500 nM, respectively.
For `CN1CCC(Cc2ccc(-c3ccc(C(=O)N4CC[C@@H](NC(=O)c5cc(-c6cnn(C)c6)cnc5N)C4)cc3)cc2)CC1` [Example 643, (R)-2-amino-5-(1-methyl-1H-pyrazol-4-yl)-N-(1-(4′-((1-methylpiperidin-4-yl)methyl)-[1,1′-biphenyl]-4-carbonyl)pyrrolidin-3-yl)nicotinamide], the figures for the half-maximal inhibitory concentration (IC50) (against human MER (528-end); in assay [1]) were 100 to 1000 nM and greater than 1000 nM, respectively.
Turning to `CN1CCC(N(C)c2ccc3cc(C(=O)N4CC[C@@H](NC(=O)c5cc(-c6cnn(C)c6)cnc5N)C4)ccc3c2)CC1` [Example 644, (R)-2-amino-N-(1-(6-(methyl(1-methylpiperidin-4-yl)amino)-2-naphthoyl)pyrrolidin-3-yl)-5-(1-methyl-1H-pyrazol-4-yl)nicotinamide], the IC50 was in the range of 10 to 100 nM against human MER (528-end) and 100 to 500 nM in assay [1].
As for `Cc1cccc(-c2ccc(C(=O)N3CC[C@@H](NC(=O)c4cc(-c5cnn(C)c5)cnc4N)C3)cc2)c1` [Example 656, (R)-2-amino-5-(1-methyl-1H-pyrazol-4-yl)-N-(1-(3′-methyl-[1,1′-biphenyl]-4-carbonyl)pyrrolidin-3-yl)nicotinamide], the IC50 against human MER (528-end) is 10 to 100 nM; in assay [1], less than 100 nM.
The like results for `CCc1cccc(-c2ccc(C(=O)N3CC[C@@H](NC(=O)c4cc(-c5cnn(C)c5)cnc4N)C3)cc2)c1` [Example 657, (R)-2-amino-N-(1-(3′-ethyl-[1,1′-biphenyl]-4-carbonyl)pyrrolidin-3-yl)-5-(1-methyl-1H-pyrazol-4-yl)nicotinamide] were, in that order, 10 to 100 nM and 100 to 500 nM.
The like results for `CC(C)c1cccc(-c2ccc(C(=O)N3CC[C@@H](NC(=O)c4cc(-c5cnn(C)c5)cnc4N)C3)cc2)c1` [Example 658, (R)-2-amino-N-(1-(3′-isopropyl-[1,1′-biphenyl]-4-carbonyl)pyrrolidin-3-yl)-5-(1-methyl-1H-pyrazol-4-yl)nicotinamide] were, in that order, 100 to 1000 nM and 500 to 1000 nM.
The like results for `COc1ccc(-c2ccc(C(=O)N3CC[C@@H](NC(=O)c4cc(-c5cnn(C)c5)cnc4N)C3)cc2)cc1OC` [Example 659, (R)-2-amino-N-(1-(3′,4′-dimethoxy-[1,1′-biphenyl]-4-carbonyl)pyrrolidin-3-yl)-5-(1-methyl-1H-pyrazol-4-yl)nicotinamide] were, in that order, 100 to 1000 nM and greater than 1000 nM.
For `Cn1cc(-c2cnc(N)c(C(=O)N[C@@H]3CCN(C(=O)c4ccc(-c5ccc(Cl)c(F)c5)cc4)C3)c2)cn1` [Example 661, (R)-2-amino-N-(1-(4′-chloro-3′-fluoro-[1,1′-biphenyl]-4-carbonyl)pyrrolidin-3-yl)-5-(1-methyl-1H-pyrazol-4-yl)nicotinamide], the figures for the IC50 (against human MER (528-end); in assay [1]) were 10 to 100 nM and 500 to 1000 nM, respectively.
The like results for `Cn1cc(-c2cnc(N)c(C(=O)N[C@@H]3CCN(C(=O)c4ccc(-c5cccc(F)c5Cl)cc4)C3)c2)cn1` [Example 673, (R)-2-amino-N-(1-(2′-chloro-3′-fluoro-[1,1′-biphenyl]-4-carbonyl)pyrrolidin-3-yl)-5-(1-methyl-1H-pyrazol-4-yl)nicotinamide] were, in that order, 10 to 100 nM and 500 to 1000 nM.

The values are drawn from patent US12378224B2 (Dong-A Socio Holdings Co., Ltd., priority 2016, dated 2025).
